From ChEMBL document CHEMBL1139978, “Synthesis and radiopharmacological characterization of [11C]AL-438 as a nonsteroidal ligand for imaging brain glucocorticoid receptors” (Bioorg Med Chem Lett, 2007)

Key:
Cerebellum [1] = test: Biodistribution in corticosterone pretreated Wistar rat cerebellum at 20 MBq, iv after 5 mins; assay type: ADME, organism-based; details: in vivo
Blood [2] = test: Biodistribution in Wistar rat blood at 20 MBq, iv after 5 mins; assay type: ADME, organism-based; details: in vivo
Pancreas [3] = test: Biodistribution in Wistar rat pancreas at 20 MBq, iv after 60 mins; assay type: ADME, organism-based; details: in vivo, 1 h
Heart = test: Biodistribution in Wistar rat heart at 20 MBq, iv after 5 mins; assay type: ADME, organism-based; details: in vivo
Blood [4] = test: Biodistribution in Wistar rat blood at 20 MBq, iv after 60 mins; assay type: ADME, organism-based; details: in vivo, 1 h
Spleen [5] = test: Biodistribution in corticosterone pretreated Wistar rat spleen at 20 MBq, iv after 60 mins; assay type: ADME, organism-based; details: in vivo, 1 h
Liver [6] = test: Biodistribution in Wistar rat liver at 20 MBq, iv after 5 mins; assay type: ADME, organism-based; details: in vivo
Kidney [7] = test: Biodistribution in Wistar rat kidney at 20 MBq, iv after 60 mins; assay type: ADME, organism-based; details: in vivo, 1 h
Spleen [8] = test: Biodistribution in Wistar rat spleen at 20 MBq, iv after 5 mins; assay type: ADME, organism-based; details: in vivo
Muscle tissue = test: Biodistribution in corticosterone pretreated Wistar rat muscle at 20 MBq, iv after 60 mins; assay type: ADME, organism-based; details: in vivo, 1 h
Adrenal [9] = test: Biodistribution in Wistar rat adrenal at 20 MBq, iv after 5 mins; assay type: ADME, organism-based, Adrenal tissue; details: in vivo
Hippocampus [10] = test: Biodistribution in corticosterone pretreated Wistar rat hippocampus at 20 MBq, iv after 60 mins; assay type: ADME, organism-based; details: in vivo, 1 h
Thymus [11] = test: Biodistribution in corticosterone pretreated Wistar rat thymus at 20 MBq, iv after 5 mins; assay type: ADME, organism-based; details: in vivo
Rattus norvegicus [12] = test: Biodistribution in corticosterone pretreated Wistar rat testis at 20 MBq, iv after 60 mins; assay type: ADME, organism-based; details: in vivo, 1 h
Pituitary gland = test: Biodistribution in corticosterone pretreated Wistar rat pituitary at 20 MBq, iv after 60 mins; assay type: ADME, organism-based; details: in vivo, 1 h
Lung [13] = test: Biodistribution in Wistar rat lung at 20 MBq, iv after 60 mins; assay type: ADME, organism-based; details: in vivo, 1 h
Lung [14] = test: Biodistribution in Wistar rat lung at 20 MBq, iv after 5 mins; assay type: ADME, organism-based; details: in vivo
Femur [15] = test: Biodistribution in corticosterone pretreated Wistar rat femur at 20 MBq, iv after 60 mins; assay type: ADME, organism-based; details: in vivo, 1 h
Liver [16] = test: Biodistribution in corticosterone pretreated Wistar rat liver at 20 MBq, iv after 5 mins; assay type: ADME, organism-based; details: in vivo
Adrenal [17] = test: Biodistribution in corticosterone pretreated Wistar rat adrenal at 20 MBq, iv after 60 mins; assay type: ADME, organism-based, Adrenal tissue; details: in vivo, 1 h
Blood [18] = test: Biodistribution in corticosterone pretreated Wistar rat blood at 20 MBq, iv after 5 mins; assay type: ADME, organism-based; details: in vivo
Thymus [19] = test: Biodistribution in Wistar rat thymus at 20 MBq, iv after 60 mins; assay type: ADME, organism-based; details: in vivo, 1 h
Kidney [20] = test: Biodistribution in corticosterone pretreated Wistar rat kidney at 20 MBq, iv after 60 mins; assay type: ADME, organism-based; details: in vivo, 1 h
Cortex [21] = test: Biodistribution in corticosterone pretreated Wistar rat cortex at 20 MBq, iv after 60 mins; assay type: ADME, organism-based; details: in vivo, 1 h
Cortex [22] = test: Biodistribution in corticosterone pretreated Wistar rat cortex at 20 MBq, iv after 5 mins; assay type: ADME, organism-based; details: in vivo
Cerebellum [23] = test: Biodistribution in Wistar rat cerebellum at 20 MBq, iv after 60 mins; assay type: ADME, organism-based; details: in vivo, 1 h
Harderian gland = test: Biodistribution in Wistar rat harderian gland at 20 MBq, iv after 60 mins; assay type: ADME, organism-based; details: in vivo, 1 h
Kidney [24] = test: Biodistribution in Wistar rat kidney at 20 MBq, iv after 5 mins; assay type: ADME, organism-based; details: in vivo
Cortex [25] = test: Biodistribution in Wistar rat cortex at 20 MBq, iv after 5 mins; assay type: ADME, organism-based; details: in vivo
Cerebellum [26] = test: Biodistribution in Wistar rat cerebellum at 20 MBq, iv after 5 mins; assay type: ADME, organism-based; details: in vivo
Femur [27] = test: Biodistribution in corticosterone pretreated Wistar rat femur at 20 MBq, iv after 5 mins; assay type: ADME, organism-based; details: in vivo
Cerebellum [28] = test: Biodistribution in corticosterone pretreated Wistar rat cerebellum at 20 MBq, iv after 60 mins; assay type: ADME, organism-based; details: in vivo, 1 h
Pancreas [29] = test: Biodistribution in Wistar rat pancreas at 20 MBq, iv after 5 mins; assay type: ADME, organism-based; details: in vivo
Femur [30] = test: Biodistribution in Wistar rat femur at 20 MBq, iv after 5 mins; assay type: ADME, organism-based; details: in vivo
Pancreas [31] = test: Biodistribution in corticosterone pretreated Wistar rat pancreas at 20 MBq, iv after60 mins; assay type: ADME, organism-based; details: in vivo, 1 h
Hippocampus [32] = test: Biodistribution in Wistar rat hippocampus at 20 MBq, iv after 5 mins; assay type: ADME, organism-based; details: in vivo
Rattus norvegicus [33] = test: Biodistribution in corticosterone pretreated Wistar rat rest of brain at 20 MBq, iv after 5 mins; assay type: ADME, organism-based; details: in vivo
Rattus norvegicus [34] = test: Biodistribution in Wistar rat fat at 20 MBq, iv after 5 mins; assay type: ADME, organism-based, Adipose tissue; details: in vivo
Rattus norvegicus [35] = test: Biodistribution in Wistar rat brown fat at 20 MBq, iv after 60 mins; assay type: ADME, organism-based, Brown adipose tissue; details: in vivo, 1 h
Hippocampus [36] = test: Biodistribution in Wistar rat hippocampus at 20 MBq, iv after 60 mins; assay type: ADME, organism-based; details: in vivo, 1 h

Drug uptake (Cerebellum [1]): 1.46 % ID/g
Drug uptake (Blood [2]): 0.52 % ID/g
Drug uptake (Pancreas [3]): 1.99 % ID/g
Drug uptake (Heart): 1.7 % ID/g
Drug uptake (Blood [4]): 0.6 % ID/g
Drug uptake (Spleen [5]): 0.91 % ID/g
Drug uptake (Liver [6]): 2.65 % ID/g
Drug uptake (Kidney [7]): 1.19 % ID/g
Drug uptake (Spleen [8]): 0.97 % ID/g
Drug uptake (Muscle tissue): 0.52 % ID/g
Drug uptake (Adrenal [9]): 7.63 % ID/g
Drug uptake (Hippocampus [10]): 0.68 % ID/g
Drug uptake (Thymus [11]): 1.46 % ID/g
Drug uptake (Rattus norvegicus [12]): 0.5 % ID/g
Drug uptake (Pituitary gland): 1.76 % ID/g
Drug uptake (Lung [13]): 1.11 % ID/g
Drug uptake (Lung [14]): 1.44 % ID/g
Drug uptake (Femur [15]): 0.7 % ID/g
Drug uptake (Liver [16]): 3.04 % ID/g
Drug uptake (Adrenal [17]): 3.8 % ID/g
Drug uptake (Blood [18]): 0.52 % ID/g
Drug uptake (Thymus [19]): 1.48 % ID/g
Drug uptake (Kidney [20]): 1.13 % ID/g
Drug uptake (Cortex [21]): 0.74 % ID/g
Drug uptake (Cortex [22]): 1.55 % ID/g
Drug uptake (Cerebellum [23]): 0.53 % ID/g
Drug uptake (Harderian gland): 3.35 % ID/g
Drug uptake (Kidney [24]): 1.72 % ID/g
Drug uptake (Cortex [25]): 1.67 % ID/g
Drug uptake (Cerebellum [26]): 1.39 % ID/g
Drug uptake (Femur [27]): 0.85 % ID/g
Drug uptake (Cerebellum [28]): 0.64 % ID/g
Drug uptake (Pancreas [29]): 2.79 % ID/g
Drug uptake (Femur [30]): 0.9 % ID/g
Drug uptake (Pancreas [31]): 1.43 % ID/g
Drug uptake (Hippocampus [32]): 1.3 % ID/g
Drug uptake (Rattus norvegicus [33]): 1.46 % ID/g
Drug uptake (Rattus norvegicus [34]): 1.19 % ID/g
Drug uptake (Rattus norvegicus [35]): 8.54 % ID/g
Drug uptake (Hippocampus [36]): 0.61 % ID/g
SMILES: C=CCC1Oc2cccc(O[11CH3])c2-c2ccc3c(c21)C(C)=CC(C)(C)N3 (stereo not given)
